How the values were obtained:
[1] = theoretical log D; cited from earlier work
physchem = assay: physchem
Source text: The total quantity of moles of the solutes in the mixture (i.e. n0) is approximately 5×10^−4 moles. The pH of the mixture is approximately 7.4 (phosphate buffer: PBS).
A sequence of 3 rows of partitions—as illustrated in FIG. 2—is applied to the mixture by using hydrated n-octanol for the partition of the aqueous mixture and that of the aqueous phases issued from the partitions of rows 1 and 2 (i.e. the phases φ11, φ21 and φ23), and an aqueous solution comprising PBS buffer having a pH of 7 in distilled water for the partition of the organic phases issued from the partitions of rows 1 and 2 (i.e. the phases φ12, φ22 and φ24).
The concentration of each solute in the phases issued from the partitions of rows 1, 2 and 3 (i.e. the phases φ11 to φ38) is monitored by UV-visible spectroscopy but only with the goal of verifying the proper running of the experiment.

[2] = pH 7.4, experimental log D, log D of the solutes as verified experimentally, hydrated n-octanol/PBS buffer, UV-visible spectroscopy
[3] = pH 7.4, log D, in the experimental conditions used for this validation, n-octanol/aqueous phase, pH approximately 7.4 (PBS)

Structure (SMILES)	log D^THEOR [1]	logD (physchem; [2])	logD (physchem; [3])
CC(C)(c1ccc(O)cc1)c1ccc(O)cc1 [BPA, bisphenol A]	3.32	–	–
Cn1c(=O)c2[nH]cnc2n(C)c1=O [Theophylline, theophylline]	–	0.01	-0.02
c1ccc2[nH]cnc2c1 [Benzimidazole, benzimidazole]	–	1.33	1.34
CC(C)=O [acetone]	~−0.24	–	–

Reference: US20230089899A1, “METHOD FOR NON-TARGETED CHARACTERISATION OF A SOLUTION COMPRISING A PLURALITY OF SOLUTES” (COMMISSARIAT A L'ENERGIE ATOMIQUE ET AUX ENERGIES …, priority 2021, published 2023)
